In patent US10730887B2, “Compound containing tricyclic heteroaryl group” (Hangzhou Innogate Pharma Co., Ltd., priority 2016, dated 2020):
pIC50: −log10 of the molar value.

target: FAK (Homo sapiens, UniProt Q05397); assay: FAK kinase activity inhibition, Latha screen analysis; assay type: biochemical
Method: FAK protein kinase activity was determined by Latha screen analysis. The compound was dissolved in DMSO and diluted with kinase buffer (25 mM HEPES, pH 7.5, 0.01 mM Triton, 10 mM MgCl2, 0.5 mM EGTA, 0.01% BRIJ-35, 2 mM DTT), 2.5 μL was added to the 384-well plate 4 times the final concentration of the compound (4% DMSO). After adding 5 μL of 2-fold FAK enzyme solution, incubate for 10 minutes at room temperature, and then add 2.5 μL of 4 times substrate (Fluorescein-polyGT and ATP) solution. After incubating for 30 minutes at 25° C., 10 μL of the detection solution (antibody of phosphorylation site 2 nM and EDTA 10 mM) was added to terminate the reaction. The data emitted at […] and emitted at 520 nm was read from Envision, and the luminescence reading data was copied from the Envision program, and the value of the luminescence reading was converted to the percent inhibition by a formula. The conversion rate was converted into inhibition rate data (% inhibition rate=(max−conversion rate)/(max−min)*100). “min” is the control fluorescence reading for the reaction without enzyme: “max” is the fluorescence reading of the sample with DMSO added as a control. Curves were plotted with compound concentration and inhibition rate on the horizontal and vertical coordinates, and the curve was fitted using XLFit excel add-in version 4.3.1 software and IC50 was calculated.

Chain of FAK (Q05397 whole entry, species assumed): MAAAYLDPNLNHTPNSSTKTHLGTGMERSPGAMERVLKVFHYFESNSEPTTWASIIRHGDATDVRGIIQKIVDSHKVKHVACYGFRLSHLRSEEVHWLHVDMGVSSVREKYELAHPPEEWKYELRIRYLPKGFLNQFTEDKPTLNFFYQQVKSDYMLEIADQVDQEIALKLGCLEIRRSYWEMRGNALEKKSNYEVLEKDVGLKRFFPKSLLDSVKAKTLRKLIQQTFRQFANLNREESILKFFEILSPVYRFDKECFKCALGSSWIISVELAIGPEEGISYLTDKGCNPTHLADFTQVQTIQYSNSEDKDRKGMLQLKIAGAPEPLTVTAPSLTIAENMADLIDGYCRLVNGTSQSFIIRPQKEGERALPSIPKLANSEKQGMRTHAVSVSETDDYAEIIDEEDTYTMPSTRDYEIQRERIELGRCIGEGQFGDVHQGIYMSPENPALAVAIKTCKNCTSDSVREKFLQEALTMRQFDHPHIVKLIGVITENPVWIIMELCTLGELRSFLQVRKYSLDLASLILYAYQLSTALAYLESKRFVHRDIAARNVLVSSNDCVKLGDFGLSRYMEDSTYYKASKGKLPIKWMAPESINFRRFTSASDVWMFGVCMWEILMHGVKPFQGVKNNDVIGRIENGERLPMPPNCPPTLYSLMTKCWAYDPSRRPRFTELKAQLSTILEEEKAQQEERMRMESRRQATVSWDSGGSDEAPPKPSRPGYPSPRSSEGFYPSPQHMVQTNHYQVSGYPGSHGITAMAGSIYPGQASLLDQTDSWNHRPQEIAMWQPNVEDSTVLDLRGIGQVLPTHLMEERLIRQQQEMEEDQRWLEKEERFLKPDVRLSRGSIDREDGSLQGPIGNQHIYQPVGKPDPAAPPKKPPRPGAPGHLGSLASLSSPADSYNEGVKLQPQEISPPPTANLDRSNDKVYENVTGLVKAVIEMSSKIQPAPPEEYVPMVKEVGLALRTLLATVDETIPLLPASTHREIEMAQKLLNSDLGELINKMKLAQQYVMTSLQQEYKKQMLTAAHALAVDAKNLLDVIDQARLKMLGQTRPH

pIC50, > 9.00:
CNC(=O)c1ccccc1Nc1cc(Nc2ccc3c(c2)OC[C@H]2CN(C)CCN32)ncc1C(F)(F)F [Compound E1R]
CNC(=O)c1ccccc1Nc1cc(Nc2ccc3c(c2)OC[C@@H]2CN(C)CCN32)ncc1C(F)(F)F [Compound E1S]
CNC(=O)c1ccccc1Nc1cc(Nc2ccc3c(c2)OCC2COCCN32)ncc1C(F)(F)F (stereo not drawn) [Compound E1]
